Data from PMC7284870, “Antimicrobial Peptides from Rat-Tailed Maggots of the Drone Fly Eristalis tenax Show Potent Activity against Multidrug-Resistant Gram-Negative Bacteria” (Microorganisms, 2020).
Read-outs that look alike come from different tables or passages of the source. No end group written: not given here.

Assays:
[1] = tested on: reference strains; assay: MIC, several reference strains; assay type: cell-based; settings: reference strains of Table 2
Method: (§1) The strains that were used in this study (Table 2 and Table S1) were cultivated at 37 °C in cation-adjusted Mueller–Hinton broth (CAMB) in Erlenmeyer flasks, or on the same medium with agar in Petri dishes. Exceptionally, Mycobacterium smegmatis was cultivated at 37 °C in brain heart infusion (BHI) medium that was supplemented with 1% Tween-80 in Erlenmeyer flasks, or on the same medium lacking detergent but with agar in Petri dishes. Strains listed with Robert Koch Institute (RKI) strain numbers are clinical isolates from the RKI strain collection originating from hospitalized patients in Germany. The remaining strains originated from the Sanofi strain collection and they were originally purchased from the American Type Culture Collection or the German Collection of Microorganisms and Cell Cultures. Meropenem/colistin-resistant strains were maintained, as described above, with the appropriate antibiotic added at levels below the minimal inhibitory concentration (MIC).
(§2) The MIC values were determined in 384-well microtiter plates with an assay volume of 20 µL. […] The growth of M. smegmatis was measured using the BacTiter-Glo luminescence test system (Promega, Madison, WI, USA). The growth of the other species was determined by visual inspection of the microtiter plate and turbidimetry based on the optical density at 600 nm (OD600). […]

[2] = tested on: Micrococus luteus DSM 20030; assay type: cell-based, Micrococcus luteus; settings: CAMB, 18 h, 37 °C, n = 4
Method: as §1, §2

[3] = tested on: E. coli ATCC 25922
Method: as §1
The MIC values were determined in 384-well microtiter plates with an assay volume of 20 µL. Immediately before each assay, the cultures of test organisms (bacteria grown for 18 h, Candida albicans and M. smegmatis grown for 48 h) were diluted with the appropriate medium to a density of 1 × 10^6 cells/mL (C. albicans), 1 × 10^5 cells/mL (M. smegmatis) or 5 × 10^5 cells per mL (other species). The peptides were dissolved in sterile water at a concentration of 10.24 mg/mL and a 1:2 dilution series was prepared in a 384-well microtiter plate to achieve the concentration range 10,240–0.3125 µg/mL in a volume of 50 µL. We transferred 2-µL aliquots from this dilution series to new 384-well microtiter plates while using a CyBio-Well 384-channel automated pipettor (Analytic Jena, Jena, Germany) and added 18 µL of the diluted suspension of each test species using a Viafill reagent dispenser (Integra), thus reducing the final peptide concentration 10-fold to the range 1024–0.03125 µg/mL. The cells were incubated at 37 °C and 85% relative humidity, shaking at 180 rpm for 48 h (M. smegmatis), 24 h (C. albicans) or 18 h (other species). The growth of M. smegmatis was measured using the BacTiter-Glo luminescence test system (Promega, Madison, WI, USA). The growth of the other species was determined by visual inspection of the microtiter plate and turbidimetry based on the optical density at 600 nm (OD600). […] We supplemented the test medium with either 150 mM NaCl or 1.25 mM CaCl2 to represent monovalent and divalent cations to simulate physiological conditions.

[4] = tested on: S. aureus ATCC 33592; assay type: cell-based, Staphylococcus aureus; settings: CAMB, 18 h, 37 °C, n = 4
Method: as §1
(§3) The MIC values were determined in 384-well microtiter plates with an assay volume of 20 µL. Immediately before each assay, the cultures of test organisms (bacteria grown for 18 h, Candida albicans and M. smegmatis grown for 48 h) were diluted with the appropriate medium to a density of 1 × 10^6 cells/mL (C. albicans), 1 × 10^5 cells/mL (M. smegmatis) or 5 × 10^5 cells per mL (other species). […] We transferred 2-µL aliquots from this dilution series to new 384-well microtiter plates while using a CyBio-Well 384-channel automated pipettor (Analytic Jena, Jena, Germany) and added 18 µL of the diluted suspension of each test species using a Viafill reagent dispenser (Integra), thus reducing the final peptide concentration 10-fold to the range 1024–0.03125 µg/mL. […] The growth of M. smegmatis was measured using the BacTiter-Glo luminescence test system (Promega, Madison, WI, USA). The growth of the other species was determined by visual inspection of the microtiter plate and turbidimetry based on the optical density at 600 nm (OD600). The MIC was defined as the peptide concentration at which no bacterial growth was observed. We supplemented the test medium with either 150 mM NaCl or 1.25 mM CaCl2 to represent monovalent and divalent cations to simulate physiological conditions.

[5] = tested on: Canida albicans FH2173; assay type: cell-based, Candida albicans; settings: CAMB, 24 h, 37 °C, n = 4
Method: as §1, §3

[6] = tested on: Acinetobacter baumannii ATCC 19606; assay type: cell-based; settings: CAMB, 18 h, 37 °C, n = 4
Method: as §1, §3

[7] = tested on: Proteus mirabilis DSM 4479; assay type: cell-based; settings: CAMB, 18 h, 37 °C, n = 4
Method: as §1, §3

[8] = tested on: Staphylococcus epidermidis ATCC 35984; assay type: cell-based; settings: CAMB, 18 h, 37 °C, n = 4
Method: as §1, §3

[9] = tested on: Mycobacterium smegmatis ATCC 607; assay type: cell-based; settings: BHI, 48 h, 37 °C, BacTiter-Glo, n = 4
Method: as §1, §3

[10] = tested on: Staphylococcus aureus ATCC 25923; assay type: cell-based; settings: CAMB, 18 h, 37 °C, n = 4
Method: as §1, §3

[11] = tested on: Enterococcus faecium DSM 17050; assay type: cell-based; settings: CAMB, 18 h, 37 °C, n = 4
Method: as §1, §3

[12] = tested on: Pseudomonas aeruginosa ATCC 27853; assay type: cell-based; settings: CAMB, 18 h, 37 °C, n = 4
Method: as §1, §3

[13] = tested on: Klebsiella pneumoniae DSM 30104; assay type: cell-based; settings: CAMB, 18 h, 37 °C, n = 4
Method: as §1, §3

[14] = tested on: Listeria monocytogenes DSM 20600; assay type: cell-based; settings: CAMB, 18 h, 37 °C, n = 4
Method: as §1, §3

## AACSLGSLLNVGCNSCACAAHCLATRGKNGACNSQRRCVCNK (disulfide (positions not given here)) [EtDef1]
[1]
  activity against the test strains: inactive
[2]
  MIC: >128 mg/L
[3]; CAMB + A000160918 [4 µg/mL]
  MIC: >256 mg/L
[3]; CAMB + A000161246 [4 µg/mL]
  MIC: >256 mg/L
[3]; CAMB + A000173031A [4 µg/mL]
  MIC: >256 mg/L
[3]; CAMB + A000173033A [4 µg/mL]
  MIC: >256 mg/L
[3]; CAMB + A000173039A [0.25 µg/mL]
  MIC: >256 mg/L
[3]; CAMB + A000173380A [4 µg/mL]
  MIC: >256 mg/L
[3]; CAMB + A000498432A [4 µg/mL]
  MIC: >256 mg/L
[3]; CAMB + A000499933A [0.0625 µg/mL]
  MIC: >256 mg/L
[3]; CAMB + A000500059A [0.0625 µg/mL]
  MIC: >256 mg/L
[3]; CAMB + A000500146A [0.0625 µg/mL]
  MIC: 128 mg/L
[3]; CAMB + A000501181A [4 µg/mL]
  MIC: >256 mg/L
[3]; CAMB + Colistin E1 [0.016 µg/mL]
  MIC: 128 mg/L
[3]; CAMB + Colistin E2 [0.016 µg/mL]
  MIC: 4 mg/L
[3]; CAMB + PMB [0.016 µg/mL]
  MIC: 1 mg/L
[3]; CAMB + PMBN [4 µg/mL]
  MIC: >256 mg/L
[3]; CAMB, 18 h, 37 °C, n = 4
  MIC: >128 mg/L
[3]; Table 6, CAMB
  MIC: >256 mg/L
[4]
  MIC: >128 mg/L
[5]
  MIC: >128 mg/L
[6]
  MIC: >128 mg/L
[7]
  MIC: >128 mg/L
[8]
  MIC: >128 mg/L
[9]
  MIC: >128 mg/L
[10]
  MIC: >128 mg/L
[11]
  MIC: >128 mg/L
[12]
  MIC: >128 mg/L
[13]
  MIC: >128 mg/L
[14]
  MIC: >128 mg/L
